Several values for one entry are separate records, joined by “and”; a condition that tells them apart may be missing. Equal entries are not always repeated. Where two headings read alike, the source gives them in different places.

The text below walks through data of article PMC9551036, “A selective and orally bioavailable VHL-recruiting PROTAC achieves SMARCA2 degradation in vivo” (Nature Communications, 2022).

A short description of one data set: Solubility testing. It is filed as physicochemical. Particulars: for solubility at 24 h: buffer, kinetic from dmso stock. The method, then:
Dilution into a 1:1 mixture of acetonitrile and water was used as reference. After 24 h, the incubations were filtrated, and the filtrate was analyzed by LC-UV.

The target of the next data set is SMARCA2 (Homo sapiens, UniProt P51531). Kind of data set: SMARCA2 capillary electrophoresis protein assay in other cell lines (A549, NCI-H1568, HCT116, LU99, HCC-364, HCT-15, HCC4006, SK-N-AS). It is filed as cell-based. Also on record: endogenous in cells; host or cells: RKO, NCI-H1568, A549, HCT116, LU99, HCC-364, HCT-15, HCC4006, SK-N-AS. The method, then:
130,000–200,000 cells were seeded in 24-well plates and incubated until settled down or overnight. Compounds were dissolved in DMSO and added to cells in indicated concentrations using a digital dispenser following an optional media change. Cells were incubated for 4 or 18 h as indicated. For SMARCA2/4 half-life determination, 150,000 or 200,000 cells were seeded in 24-well plates. The next day, 50 µg/ml cycloheximide (Sigma) was added and cells were incubated for 1–24 h. For SMARCA2/4 re-synthesis measurements, 200,000 cells were seeded in 24-well plates. The next day, 100 nM compound 6 was added for 4 h to degrade SMARCA2/4, and a sample was taken as baseline for normalisation. To allow re-synthesis, a VHL binder (compound 32, 25 or 50 µM) was then added for 3 or 24 h. Medium was removed, cells were washed with PBS and lysed with 80 µl Lysis Buffer (MSD Tris Lysis Buffer (#R60TX-2) + Halt Inhibitor Cocktail (100x) + Benzonase 0.5 µL/ml). Samples were frozen at −80 °C and thawed at room temperature before use. Samples were transferred to a V-bottom plate and insoluble debris was pelleted by centrifugation for 5 min at maximum speed. The supernatant was transferred to a fresh plate. Master Mix and Ladder were prepared according to manufacturer’s instructions for 12–230 kDa Wes Separation Module, 8 × 25 capillary cartridges, Protein Simple #SM-W004 with Anti-Rabbit Detection Module for Wes, Peggy Sue or Sally Sue, Protein Simple #DM-001. 4.8 µl lysate were mixed with 1.2 µl Master Mix to achieve a protein concentration of ~0.5 µg/µl. Antibodies were diluted in Antibody Diluent II (SMARCA2 Sigma #HPA029981 RRID:AB_10602406 1:25–100, SMARCA4 Cell Signalling #49360 clone D1Q7F RRID:AB_2728743 1:15–120 or Abcam #ab110641 clone EPNCIR111A RRID:AB_10861578 1:60, GAPDH Abcam #ab9485 RRID:AB_307275 1:250). Wes plates were prepared and run according to manufacturer’s instructions. Proteins were quantified with accompanying Compass Software. SMARCA2/4 protein levels were normalised to GAPDH. […] Where applicable, curves were fitted using a 4-parametric logistic model.

The target of data set [1] is VCB: PROTAC: SMARCA2^BD ternary complex (Homo sapiens, UniProt P40337+P51531). Kind of data set: SPR ternary complex measurement, VCB immobilised, 10 µM SMARCA2^BD present. It is filed as binding. Details: P51531-2, residues 1373-1493 with additional N-terminal SM residues; His6 (TEV site) (N, cleaved yes); GST (TEV site) (N, cleaved yes); made in house; host or cells: SMARCA2^BD: Escherichia coli BL21(DE3). The note with it: for Kd: SPR; for alpha: cooperativity, SMARCA2, ratio of KD values measured in the same run. The method, then: SPR data were acquired on Biacore 8K or T200 instruments (Cytiva). Target proteins were immobilised at 25 °C on CM5 chips by amine coupling (EDC/NHS, Cytiva) in HBS-P+ running buffer (pH 7.4), containing 2 mM TCEP. […] The reference surface was subsequently deactivated using 1 M ethanolamine. […] Biotinylated VCB was prepared as previously described[27]: in brief, the complex was mixed 1:1 with EZ-Link NHS–PEG4–biotin (Thermo Scientific) and incubated at room temperature for 1 h. Unreacted NHS-biotin was removed using a PD-10 desalting column (Cytiva) into 20 mM HEPES, pH 7.5, 150 mM sodium chloride and 1 mM DTT. The reference surface was generated by deactivating the EDC/NHS-treated surface with 1 M ethanolamine. All interaction experiments were done at 6 °C in running buffer (20 mM TRIS, pH 8.3, 150 mM potassium chloride, 2 mM magnesium chloride, 2 mM TCEP, 0.005% TWEEN 20, 1% dimethyl sulfoxide). For ternary complex measurements, a sensor chip surface with VCB immobilised was used (preparation as described above). Experiments were run in dual-inject mode with 10 µM SMARCA present during the injection and dissociation phase. Sensorgrams from reference surfaces and blank injections were subtracted from the raw data prior to data analysis using Biacore Insight software. Affinity and binding kinetic parameters were determined by global fitting using the 1:1 interaction model with a term for mass-transport included.

Data set [2] has as its target T1, PBRM1BD5 (Homo sapiens, UniProt P40337+Q86U86).
T1 construct: GST (TEV site) (N); His6 (TEV site) (N, cleaved yes); made in house; host or cells: PBRM1^BD5: Escherichia coli BL21(DE3)
The experiment in a line: TR-FRET ternary complex affinity and cooperativity, PBRM1. Particulars: TR-FRET competition for PBRM1BD5, + VCB; mean ± SD; read-out: TR-FRET Ternary PBRM1BD EC50 (PROTAC + VCB). It is filed as binding. A general note: Time-resolved FRET reads energy transfer from a long-lived donor to a nearby acceptor.

Data set [3] concerns PBRM1BD5. The data set is described as above. The note with it: ratio TR-FRET EC50 / TR-FRET EC50 +VCB measured in the same run, PBRM1BD5. It is filed as binding.
Where [4] appears, read: NCI-H1568 (4 h), mean ± SD, read-out: SMARCA2 DC50.
Where [5] appears, read: NCI-H1568, 4h, individual replicates, read-out: NCI-H1568 (4h) SMARCA2 DC50.
[6] abbreviates: ternary complex with SMARCA2BD, mean ± SD.

T1 sequence (Q86U86 645-766): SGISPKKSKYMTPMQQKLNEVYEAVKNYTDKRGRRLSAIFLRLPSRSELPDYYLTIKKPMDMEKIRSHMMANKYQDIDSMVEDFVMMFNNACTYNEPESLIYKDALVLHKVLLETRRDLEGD
T1 sequence (P40337 54-213): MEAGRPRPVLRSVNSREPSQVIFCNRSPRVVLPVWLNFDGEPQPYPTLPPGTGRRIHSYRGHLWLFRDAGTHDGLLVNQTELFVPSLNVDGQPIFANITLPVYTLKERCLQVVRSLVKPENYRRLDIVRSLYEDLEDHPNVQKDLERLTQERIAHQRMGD
T1 sequence (Q15369 17-112 partner): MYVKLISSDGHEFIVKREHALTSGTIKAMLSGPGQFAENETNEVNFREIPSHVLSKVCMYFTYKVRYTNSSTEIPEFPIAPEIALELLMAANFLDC
T1 sequence (Q15370 1-104 partner): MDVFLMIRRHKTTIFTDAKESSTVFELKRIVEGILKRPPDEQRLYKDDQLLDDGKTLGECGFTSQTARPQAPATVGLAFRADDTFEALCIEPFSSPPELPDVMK
SMARCA2, sequence (P51531 whole entry): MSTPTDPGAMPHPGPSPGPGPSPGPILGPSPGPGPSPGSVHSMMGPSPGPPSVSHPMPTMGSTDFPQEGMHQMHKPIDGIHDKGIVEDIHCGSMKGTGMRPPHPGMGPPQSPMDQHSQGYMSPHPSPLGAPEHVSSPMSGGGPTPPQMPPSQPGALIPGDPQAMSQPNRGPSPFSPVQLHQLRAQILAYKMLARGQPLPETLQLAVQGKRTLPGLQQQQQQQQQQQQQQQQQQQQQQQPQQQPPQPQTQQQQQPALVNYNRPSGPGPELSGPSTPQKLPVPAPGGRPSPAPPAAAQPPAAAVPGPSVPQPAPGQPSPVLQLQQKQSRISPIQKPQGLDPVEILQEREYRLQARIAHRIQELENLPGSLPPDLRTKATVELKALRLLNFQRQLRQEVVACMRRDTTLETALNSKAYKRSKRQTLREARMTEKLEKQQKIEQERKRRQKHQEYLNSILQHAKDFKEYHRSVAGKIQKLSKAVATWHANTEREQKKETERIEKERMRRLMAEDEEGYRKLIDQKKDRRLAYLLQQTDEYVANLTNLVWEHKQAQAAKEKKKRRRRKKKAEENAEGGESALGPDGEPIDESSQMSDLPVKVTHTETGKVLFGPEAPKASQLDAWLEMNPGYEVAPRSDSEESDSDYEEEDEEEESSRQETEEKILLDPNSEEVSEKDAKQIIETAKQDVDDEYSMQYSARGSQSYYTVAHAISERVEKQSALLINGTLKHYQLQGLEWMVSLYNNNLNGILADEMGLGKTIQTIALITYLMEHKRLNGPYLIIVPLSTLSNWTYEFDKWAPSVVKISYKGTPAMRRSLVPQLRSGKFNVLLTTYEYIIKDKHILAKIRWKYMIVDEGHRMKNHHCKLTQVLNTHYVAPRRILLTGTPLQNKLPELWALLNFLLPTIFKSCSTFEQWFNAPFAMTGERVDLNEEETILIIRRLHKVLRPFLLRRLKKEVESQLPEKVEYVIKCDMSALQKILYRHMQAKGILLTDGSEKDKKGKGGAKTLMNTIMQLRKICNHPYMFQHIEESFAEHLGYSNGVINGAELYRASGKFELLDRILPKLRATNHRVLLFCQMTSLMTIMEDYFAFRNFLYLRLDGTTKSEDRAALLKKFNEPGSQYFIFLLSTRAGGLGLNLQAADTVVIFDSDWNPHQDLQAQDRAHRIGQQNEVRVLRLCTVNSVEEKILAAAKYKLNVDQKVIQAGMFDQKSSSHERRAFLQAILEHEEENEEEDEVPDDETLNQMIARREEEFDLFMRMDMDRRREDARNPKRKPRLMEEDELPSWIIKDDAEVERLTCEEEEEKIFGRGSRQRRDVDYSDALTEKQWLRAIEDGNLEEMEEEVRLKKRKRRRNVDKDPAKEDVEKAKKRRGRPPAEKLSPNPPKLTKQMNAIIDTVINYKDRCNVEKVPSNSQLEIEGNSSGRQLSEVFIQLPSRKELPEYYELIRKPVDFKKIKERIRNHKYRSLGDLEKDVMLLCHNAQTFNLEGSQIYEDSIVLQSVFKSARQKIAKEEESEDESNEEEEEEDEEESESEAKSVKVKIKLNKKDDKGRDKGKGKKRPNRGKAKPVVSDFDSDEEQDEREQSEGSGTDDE
VCB: PROTAC: SMARCA2^BD ternary complex, sequence (P40337 54-213): as the sequence (P40337 54-213) above
VCB: PROTAC: SMARCA2^BD ternary complex, sequence (Q15369 17-112 partner limits assumed): as the sequence (Q15369 17-112 partner) above
VCB: PROTAC: SMARCA2^BD ternary complex, sequence (Q15370 1-104 partner limits assumed): as the sequence (Q15370 1-104 partner) above
VCB: PROTAC: SMARCA2^BD ternary complex, sequence (P51531 1373-1493 isoform P51531-2): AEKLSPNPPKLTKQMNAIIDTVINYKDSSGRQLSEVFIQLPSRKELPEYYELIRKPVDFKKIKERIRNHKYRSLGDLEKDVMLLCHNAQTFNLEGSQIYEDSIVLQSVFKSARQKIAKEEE

Turning to `Cc1ncsc1-c1ccc([C@H](CCCCCN2CCC(c3ccc4c(c3)n(C3CCCC3)c3nc(=O)c5c(Br)cccc5n43)CC2)NC(=O)[C@@H]2C[C@@H](O)CN2C(=O)[C@@H](NC(=O)C2(F)CC2)C(C)(C)C)cc1` [compound 11], in “Solubility testing”, the solubility (as a rule, the dissolved amount per volume that the medium holds) is “moderate solubility”. Moreover, the solubility at 24 h in the data set “Solubility testing” (pH 4.5, aqueous buffer, pH 4.5, read-out: Solubility pH 4.5) was < 1 µg/mL; in the data set “Solubility testing” (pH 6.8, aqueous buffer, pH 6.8, read-out: Solubility pH 6.8) it was < 1 µg/mL. For the same compound, the Dmax at SMARCA2 (NCI-H1568 (4 h), mean ± SD) worked out at 90 ± 0.3%. In addition, the DC50 at SMARCA2 (setting [4]) is 8 ± 4 nM; at SMARCA2 (setting [5]) it was 5.2 nM and 13 nM and 6.7 nM. The dissociation constant Kd – broadly, a measure of binding affinity in units of concentration – in data set [1] (setting [6]) is 37 ± 12 nM; in data set [1] (ternary, individual replicates), 45.4 nM and 28.1 nM. In addition, the alpha in data set [1] was 0.3. The EC50 (usually the concentration at which the effect is half-maximal) at PBRM1BD5 [2] came out at 4 ± 1 nM. Besides, the “cooperativity α (PBRM1BD)” value with PBRM1BD5 [3] came out at 11.9 ± 1.3.
For `Cc1ncsc1-c1ccc(CNC(=O)[C@@H]2C[C@@H](O)CN2C(=O)[C@@H](NC(=O)C2(F)CC2)C(C)(C)C)c(OCCN2CCC(c3ccc4c(c3)n(C3CCCC3)c3nc(=O)c5c(Br)cccc5n43)CC2)c1` [compound 20], the “Solubility pH 4.5” value in the data set “Solubility testing” (pH 4.5) is listed as <1.000 <1.000 <1.000 <1.000 <1.000 ug/mL. In addition, in the data set “Solubility testing” (pH 6.8), the “Solubility pH 6.8” value was <1.000 <1.000 <1.000 <1.000 <1.000 ug/mL. Also, the DC50 on SMARCA2 (setting [4]) and on SMARCA2 (setting [5]) was > 2500 nM in each case. The equilibrium dissociation constant (Kd) in data set [1] (setting [6]) is 97 ± 10 nM; in data set [1] (ternary, individual replicates) it was 89.5 nM and 108 nM and 91.8 nM. Moreover, the alpha in data set [1] is on record as 0.1. For the same compound, the EC50 at PBRM1BD5 [2] was found to be 35 ± 4 nM. The “cooperativity α (PBRM1BD)” value with PBRM1BD5 [3] amounted to 1.1 ± 0.1.
In the case of `Cc1ncsc1-c1ccc([C@H](CCCCN2CCC(c3ccc4c(c3)n(C3CCCC3)c3nc(=O)c5c(Br)cccc5n43)CC2)NC(=O)[C@@H]2C[C@@H](O)CN2C(=O)[C@@H](NC(=O)C2(F)CC2)C(C)(C)C)cc1` [compound 25], the “Solubility pH 4.5” value in “Solubility testing” (pH 4.5) is <1.000 ug/mL. The “Solubility pH 6.8” value in the data set “Solubility testing” (pH 6.8) is <1.000 ug/mL. For the same compound, the dissociation constant (Kd) was 36 ± 15 nM in data set [1] (setting [6]); 22.7 nM and 51.6 nM and 32.9 nM in data set [1] (ternary, individual replicates). In data set [1], the alpha worked out at 0.2. The concentration for a half-maximal effect (EC50) at PBRM1BD5 [2] worked out at 3 ± 1 nM. For the same compound, in the data set on PBRM1BD5 [3], the “cooperativity α (PBRM1BD)” value was determined as 11.2 ± 2.1.
In the case of `Cc1ncsc1-c1ccc([C@H](COC(C)(C)CN2CCC(c3ccc4c(c3)n(C3CCCC3)c3nc(=O)c5c(Br)cccc5n43)CC2)NC(=O)[C@@H]2C[C@@H](O)CN2C(=O)[C@@H](NC(=O)C2(F)CC2)C(C)(C)C)cc1` [compound 28], the “Solubility pH 6.8” value in “Solubility testing” (pH 6.8) is recorded as <1.000 <1.000 <1.000 <1.000 <1.000 ug/mL. Moreover, the “SMARCA2 Dmax” value on SMARCA2 (NCI-H1568 (4 h), mean ± SD) stood at 94 ± 6%. Moreover, the DC50 on SMARCA2 (setting [4]) was 18 ± 13 nM; at SMARCA2 (setting [5]) it was 6.62 nM and 28.2 nM and 30.1 nM. Also, the Kd in data set [1] (setting [6]) was 120 ± 34 nM; in data set [1] (ternary, individual replicates), 82.7 nM and 149 nM and 127 nM. Also, the alpha in data set [1] was determined as 0.5. In addition, at PBRM1BD5 [2], the EC50 was 4 ± 2 nM. For the same compound, the “cooperativity α (PBRM1BD)” value in the data set on PBRM1BD5 [3] was 6.9 ± 1.9.
Regarding `Cc1ncsc1-c1ccc(CNC(=O)[C@@H]2C[C@@H](O)CN2C(=O)[C@@H](NC(=O)C2(F)CC2)C(C)(C)C)c(OCCCCN2CCC(c3ccc4c(c3)n(C3CCCC3)c3nc(=O)c5c(Br)cccc5n43)CC2)c1` [compound 23], in “Solubility testing” (pH 4.5), the “Solubility pH 4.5” value was <1.000 ug/mL. In addition, the “Solubility pH 6.8” value in “Solubility testing” (pH 6.8) is recorded as <1.000 ug/mL. Further, the dissociation constant (Kd) is 120 ± 8 nM in data set [1] (setting [6]); 116 nM (2×) and 129 nM in data set [1] (ternary, individual replicates). In addition, the alpha in data set [1] worked out at 0.1. Besides, the 50% effective concentration (EC50) at PBRM1BD5 [2] turned out to be 21 ± 3 nM. Further, the “cooperativity α (PBRM1BD)” value with PBRM1BD5 [3] is on record as 2.0 ± 0.4.
`Cc1ncsc1-c1ccc([C@H](CCC(C)(C)CCN2CCC(c3ccc4c(c3)n(C3CCCC3)c3nc(=O)c5c(Br)cccc5n43)CC2)NC(=O)[C@@H]2C[C@@H](O)CN2C(=O)[C@@H](NC(=O)C2(F)CC2)C(C)(C)C)cc1` [compound 30]: in “Solubility testing” (pH 4.5), the “Solubility pH 4.5” value is <1.000 ug/mL. Besides, the “Solubility pH 6.8” value in “Solubility testing” (pH 6.8) is <1.000 ug/mL. Also, the Kd in data set [1] (setting [6]) was 86 ± 22 nM; in data set [1] (ternary, individual replicates), 66.1 nM and 109 nM and 81.8 nM. For the same compound, the alpha in data set [1] was determined as 0.3. For the same compound, the half-maximal effective concentration (EC50) on PBRM1BD5 [2] stood at 6 ± 2 nM. Also, the “cooperativity α (PBRM1BD)” value in the data set with PBRM1BD5 [3] came out at 22.4 ± 3.9.
